The text below walks through data of PMC2875737, “Determination of drug-like properties of a novel antileishmanial compound: In vitro absorption, distribution, metabolism, and excretion studies” (Indian Journal of Pharmacology, 2009).

Series [1] concerns Leishmania donovani. Conditions: cited from earlier work.
The nature of series [2]: Plasma protein binding by equilibrium dialysis. Conditions: human. On the procedure:
The binding of compound to human plasma was determined using equilibrium dialysis with 6-hour incubation with constant shaking at 37°C as per the method described by Kaplita and Liu.[4] The initial concentration of the compound used was 10 μM (DMSO ≤1%). Quantitations were done by HPLC.
For orientation: In equilibrium dialysis free small molecules cross a membrane that holds back macromolecules.

Series [3] concerns human plasma protein. Also noted: method as in PMID 14567798, PMID 11841071. Conditions: cited from earlier work.
Series [4] is described as follows: physchem. Conditions: for solubility at 2 h: 25 °C, pH 7.4, aqueous buffer, kinetic from dmso stock. On the procedure:
A 4 μl of 25 mM stock (DMSO) of S-4 was diluted to 200 μl with PBS (pH 7.4) and incubated at 25°C for 2 hours with constant shaking. The undissolved compound, if any, was filtered through the PVDF membrane filter (Millipore, MA). To 120 μl of the filtrate, 80 μl of acetonitrile was added and mixed thoroughly. The concentration of S-4 in the filtrate was determined spectrophotometrically from linearity (5-400μM) of the compound prepared in PBS containing 40% acetonitrile. The observed solubility result was multiplied by 200/120 to account for the acetonitrile addition in the test filtrate.

Details of series [5]: method as in PMID 14567798, PMID 11841071. Conditions: PBS pH 7.4; cited from earlier work.
The conditions of series [6]: cited from earlier work.
A short description of series [7]: Distribution coefficient Log D in cyclohexane/PBS pH 7.4. Type of series: physicochemical. Conditions: PBS pH 7.4, average of three experiments. On the procedure:
Log D in cyclohexane/PBS was performed following the similar method as done for Log D in octanol/PBS. Here, 5 mM compound stock was used to prevent precipitation problem with this system and volumes of cyclohexane were 150, 200, 400, and 800 μl.

The conditions of series [8]: PAMPA standards; cited from earlier work. A general note: The PAMPA barrier holds no transporters, so it reflects passive diffusion.
Series [9] can be described thus: Distribution coefficient (Log D) in octanol/PBS pH 7.4.
Details of series [10]: method as in PMID 14567798, PMID 11841071. Conditions: cited from earlier work.
On the set-up of series [11]: method as in ref 11 = [11]; PMID 11937327; doi:10.1016/s0968-0896(02)00046-9; 11 Sahu NP Pal C Mandal NB Banerjee S Raha M Kundu AP Synthesis of a novel quinoline derivative, 2-(2-Methylquinolin-4ylamino)-N-phenylacetamide: A potential antileishmanial agent Bioorg Med Chem 2002. Conditions: cited from earlier work.
The subject of series [12] is Leishmania donovani. Also noted: method as in ref 11, 12 = [11]; PMID 11937327; doi:10.1016/s0968-0896(02)00046-9; 11 Sahu NP Pal C Mandal NB Banerjee S Raha M Kundu AP Synthesis of a novel quinoline derivative, 2-(2-Methylquinolin-4ylamino)-N-phenylacetamide: A potential antileishmanial agent Bioorg Med Chem 2002 || [12]; 12 Sahu NP Mondal NB Banerjee S Raha R Chakraborti G Basu A Indian patent No. 191818 2004. Conditions: cited from earlier work.

Series [13] in a line: Chemical stability in PBS pH 7.4, simulated gastric fluid and simulated intestinal fluid. In kind it is physicochemical. The procedure: A 100-μM solution of S-4 was prepared in phosphate buffered saline (PBS), pH 7.4, from a stock of 25 mM in DMSO and was kept at 25°C for 24 hours. Percentage stability was determined based on chromatographic peak area of the sample kept for 24 hours and that of 0 hour (freshly prepared and injected) sample. All the samples were prepared in triplicate.
Similar studies were carried out at 37°C replacing PBS with simulated gastric fluid (SGF) and simulated intestinal fluid (SIF) which were prepared following United States Pharmacopoeia, and stability was checked for upto 2 hours for SGF and 4 hours for SIF.

The nature of series [14]: Parallel artificial membrane permeability assay (PAMPA). In kind it is in vitro ADME. On the procedure: Millipore acceptor and donor plate (Cat No: MAPB310 and MASSACCEPTOR) were used in the study. […] Incubation was carried out for 16 hours at room temperature in a water-saturated chamber to avoid evaporation from donor wells. […] To a 200 μl acceptor sample, a 100 μl donor solution was added, mixed properly, and this mixture was termed as “equilibrium.” The absorbance of the equilibrium was also determined. Five standard compounds of different permeability (high: […] (1) Calculation: […] where C = (VD × VA)/[(VD + VA)× Area (cm^2) × porosity × time (seconds)] Where VD = volume of donor (ml), VA = volume of acceptor (ml). A linear graph was plotted with observed and reported values for the standard drugs. The experimental method was considered valid for permeability ranking if linear correlation coefficient (R^2) was more than 0.95.

Series [15] deals with rat liver microsomes. Put plainly: Metabolism by liver microsomal enzymes. Type of series: in vitro ADME. Conditions: rat liver microsomes 0.5 mg protein/ml, 10 μM, 1 hour, 37°C, NADPH regeneration system; ± SEM. The procedure: Ethical clearance was obtained from Animal Ethics Committee of Indian Institute of Chemical Biology for use of animals for the present study. […] The % stability (% compound remaining after metabolism) was calculated as follows:
(3) % Compound remaining=100×(peak area of 1 hour sampl/peak area of 0 hour sample)
For 0 hour sample, the compound was added after addition of ice-cold acetonitrile and then vortexed, followed by centrifugation as mentioned above.
On the technique in general: Liver microsomes are a subcellular fraction often used to study metabolism.

Where [16] appears, read: simulated gastric fluid (SGF), 37°C, 2 hours.
The mark [17] stands for this setting: simulated intestinal fluid (SIF), 37°C, 4 hours.

In brackets after ≈: the same amount, converted by molar mass. Several values for one entry are separate records, joined by “and”; a condition that tells them apart may be missing. Equal values may be shown once. Where a name gives a salt, the structure may show the parent alone.

Regarding `O=C(Nc1ccccc1Cc1nc2ccccc2cc1-c1c[nH]c2ccccc12)C(Cl)Cl` [2-(2′′-dichloroacetamidobenzyl)-3-(3′-indoyl)-quinoline], the Antileishmanial activity result in [1] is recorded as “significant antileishmanial activity”.

Broadly, the fraction unbound is free concentration divided by total concentration. As for `Cn1c(=O)c2c(ncn2C)n(C)c1=O` [Caffeine], the fraction unbound at 6 h, 10 μM in series [2] is 0.593. Moreover, the “Percentage of plasma protein binding, reported value” (shortened to “Percentage of plasma protein binding”) in [3] is 29-43%.

As usually defined, the solubility is how much of the substance goes into solution per volume. The low end stands for a poorly soluble substance, the high end for a readily soluble substance. With `O=C(O)Cc1ccccc1Nc1c(Cl)cccc1Cl` [Diclofenac Sodium], the solubility at 2 h in [4] is above 400 µM. Besides, in series [5], the “Solubility, reported value” was above 400 µM.

As a reminder, the Solubility is the concentration that dissolves in the medium under given conditions. The molecule `CC/C(=C(/CC)c1ccc(O)cc1)c1ccc(O)cc1` [Diethylstilbesterol] displayed a Solubility in [4] (pH 7.4) of 18.94 ± 1.00 µM (≈ 5.08 µg/mL). Besides, the “Solubility, reported value” in [5] was 5 to 20 µM.

Take `O=C(CCCN1CCC(O)(c2ccc(Cl)cc2)CC1)c1ccc(F)cc1` [Haloperidol]: in series [6], the “Log D cyclohexane/PBS, reported value” is 0.46. Moreover, the logD hydrocarbon water in [7] (cyclohexane/PBS) is 0.52. This molecule showed a solubility at 2 h in series [4] of 48.5 ± 3.21 µM (≈ 18.2 µg/mL). Besides, in series [5], the “Solubility, reported value” is 40 to 63 µM.

In series [2], `CN(Cc1cnc2nc(N)nc(N)c2n1)c1ccc(C(=O)N[C@@H](CCC(=O)O)C(=O)O)cc1` [Methotrexate] had a free fraction (fraction unbound) at 6 h, 10 μM of 0.493. The “Percentage of plasma protein binding” value in series [3] is reported as 35-57%. Further, the “Permeability ranking of standard compounds” value in series [8] is listed as “very low”.

A word on the logD: it is the decadic logarithm of the distribution of all forms, ionised or not, between an organic phase and buffer at a given pH. For `COCCc1ccc(OCC(O)CNC(C)C)cc1` (centres unmarked) [Metoprolol tartrate], the pH-dependent lipophilicity (logD) in series [9] is -0.25. Further, the “Log D octanol/PBS, reported value” in series [10] is reported as −0.30.

For `CC(C)NCC(O)COc1cccc2ccccc12.Cl` (centres unmarked) [Propranolol HCl], the “Percentage of plasma protein binding” value in [3] was 80-93%. Further, the “Permeability ranking of standard compounds” value in series [8] is “high”.

In [2] (plasma), `CNC(=C[N+](=O)[O-])NCCSCc1ccc(CN(C)C)o1` [Ranitidine HCl] gave a fraction unbound at 6 h, 10 μM of 0.852. For the same molecule, the “Percentage of plasma protein binding” value in series [3] is reported as 10-19%.

One may read the fraction remaining as the share of the starting amount still present when the sample was taken. Low readings indicate a greater loss, high ones greater stability. Take `Cc1cc(NCC(=O)Nc2ccccc2)c2ccccc2n1` [S-4, 2-(2-methylquinolin-4-ylamino)-N-phenylacetamide]: the “Toxicity to different organs” value in series [11] was “no alarming sign to different organs tested”. For the same molecule, the logD hydrocarbon water in [7] (cyclohexane/PBS) was -1.33. Further, in series [9], the logD amounted to 0.54. In addition, the “Reduction of parasite burden in spleen and liver compared with sodium antimony gluconate” value in series [12] was “significantly more effective than sodium antimony gluconate”. Besides, the “Stability (% remaining)” value in series [13] (100 μM in PBS pH 7.4, 25°C, 24 hours, HPLC) was 99.16 ± 1.32%. In [13] (phosphate buffered saline, pH 7.4, 100 μM in PBS pH 7.4, 25°C, 24 hours, HPLC), this molecule registered an amount remaining at 24 h, 100 μM above 95%. Further, in series [13] (setting [16]), the “Stability (% remaining)” value is 101.19± 0.76% and the share remaining at 2 h, 100 μM is above 95%. Further, in series [13] (setting [17]), the “Stability (% remaining)” value is listed as 97.70 ± 0.15% and the share remaining at 4 h, 100 μM was above 95%. The same molecule had a fraction unbound at 6 h, 10 μM in series [2] of 0.212. In series [14] (PBS pH 7.4 (5% DMSO), 16 hours, room temperature, ± SEM, read-out: Log Pe (converted)), the Papp at 16 h, 250 μM is 2.95 ×10⁻⁶ cm/s. Also, in [14] (ranking against standard drugs), the Permeability ranking result is listed as “medium”. The amount in solution in [4] (PBS) (solubility at 2 h) came to 300 ± 6.42 µM (≈ 87.3 µg/mL). Besides, the “% Parent compound remaining, result” value in series [15] was 36.07% and 36.07 ± 4.15%.

In the case of `CC(=O)CC(c1ccccc1)c1c(O)c2ccccc2oc1=O` (centres unmarked) [Warfarin], in [6], the “Log D cyclohexane/PBS, reported value” is reported as −1.31. Further, the logD hydrocarbon water in series [7] was -1.28. The fraction unbound at 6 h, 10 μM in [2] (plasma) was 0.0179. In series [3], the “Percentage of plasma protein binding” value was 99%. In series [8], the “Permeability ranking of standard compounds” value was “medium”.

Consider `NC(=O)N1c2ccccc2C=Cc2ccccc21` [carbamazepine], for which, in series [8], the “Permeability ranking of standard compounds” value is listed as “high”.
